These results are taken from patent US9850272B2, “Therapeutically active estratrienthiazole derivatives as inhibitors of 17.beta-hydroxy-steroid dehydrogenase, type 1” (FORENDO PHARMA LTD, priority 2013, dated 2017).

Molecules are shown by their SMILES. Counter-ions that a name gives are not always drawn. Like-named read-outs stand apart in the source and are kept apart here.

For test [1], the target named is T1, Recombinant Human 17β-HSD1 (Homo sapiens, UniProt P14061).
T1 construct: made in house; host or cells: Sd9 (Sf9) insect cells, baculovirus (Bac to Bac Expression System)
T1 sequence (P14061 1-328): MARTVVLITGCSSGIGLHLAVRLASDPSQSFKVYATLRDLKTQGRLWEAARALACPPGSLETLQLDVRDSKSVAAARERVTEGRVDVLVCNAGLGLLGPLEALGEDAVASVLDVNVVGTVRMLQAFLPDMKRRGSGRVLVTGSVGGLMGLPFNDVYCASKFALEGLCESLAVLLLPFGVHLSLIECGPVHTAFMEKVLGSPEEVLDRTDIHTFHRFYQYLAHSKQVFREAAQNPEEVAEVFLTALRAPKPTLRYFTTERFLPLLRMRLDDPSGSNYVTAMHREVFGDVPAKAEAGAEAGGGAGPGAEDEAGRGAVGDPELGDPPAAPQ
Nature of the test: Inhibition of recombinant human 17β-HSD1 (conversion of 3H-estrone to estradiol, HPLC). In kind it is biochemical. To be noted: for inhibition at 1 µM: read-out: 17β-HDS1 Inhibition % at 1 μM. On the procedure: 17β-HSD1 Production and Isolation:
Recombinant baculovirus was generated by the “Bac to Bac Expression System” (Invitrogen). Recombinant bacmid was transfected to Sd9 insect cells using “Cellfectin Reagent” (Invitrogen). 60 h later cells were harvested; the microsomal fraction was isolated as described by Puranen, T. J., Poutanen, M. H., Peltoketo, H. E., Vihko, P. T. and Vihko, R. K. (1994) Site-directed mutagenesis of the putative active site of human 17 β-hydroxysteroid dehydrogenase type 1. Biochem. J. 304: 289-293. Aliquots were stored frozen until determination of enzymatic activity.
Assay—Inhibition of Recombinant Human 17β-HSD1:
Recombinant protein (1 μg/ml) was incubated in 20 mM KH2PO4 pH 7.4 with 30 nM estrone (including 800.000 cpm/ml of ^3H-estrone) and 1 mM NADPH for 30 min at RT, in the presence of the potential inhibitor at concentrations 1 μM or 0.1 μM. Inhibitor stock solutions were prepared in DMSO. Final concentration of DMSO was adjusted to 1% in all samples. The enzyme reaction was stopped by addition of 10% trichloroacetic acid (final concentration). Samples were centrifuged in a microtiter plate at 4000 rpm for 10 min. Supernatants were applied to reverse phase HPLC on a Waters Symmetry C18 column, equipped with a Waters Sentry Guard column. Isocratic HPLC runs were performed at RT at a flow rate of 1 ml/min in acetonitrile:water 48:52 as running solvent. Radioactivity was monitored in the eluate by a Packard Flow Scintillation Analyzer. Total radioactivity for estrone and estradiol were determined in each sample and percent conversion of estrone to estradiol was calculated according to the following formula:
(§1) Percent inhibition was calculated flowingly: % inhibition=100−% conversion

Test [2] has as its target T2, Recombinant Human 17β-HSD2 (Homo sapiens, UniProt P37059).
T2 construct: made in house; host or cells: Sd9 (Sf9) insect cells, baculovirus (Bac to Bac Expression System)
T2 sequence (P37059 1-387): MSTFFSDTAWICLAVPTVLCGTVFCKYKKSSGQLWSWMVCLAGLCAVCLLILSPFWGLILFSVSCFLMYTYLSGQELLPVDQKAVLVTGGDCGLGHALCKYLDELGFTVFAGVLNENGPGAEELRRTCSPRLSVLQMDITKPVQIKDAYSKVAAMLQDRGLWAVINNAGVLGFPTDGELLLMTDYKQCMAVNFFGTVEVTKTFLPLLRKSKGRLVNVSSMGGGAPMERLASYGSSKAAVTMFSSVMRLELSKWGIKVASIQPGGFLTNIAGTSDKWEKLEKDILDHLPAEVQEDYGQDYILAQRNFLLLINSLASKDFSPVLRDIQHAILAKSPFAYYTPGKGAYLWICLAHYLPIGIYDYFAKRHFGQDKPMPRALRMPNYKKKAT
Nature of the test: Inhibition of recombinant human 17β-HSD2 (conversion of 3H-estradiol to estrone, HPLC). Type of test: biochemical. To be noted: for inhibition at 1 µM: read-out: 17β-HSD2 Inhibition % at 1 μM. On the procedure: 17β-HSD2 Production and Isolation:
Similarly to 17β-HSD1 the Recombinant baculovirus was generated by the “Bac to Bac Expression System” (Invitrogen). Recombinant bacmid was transfected to Sd9 insect cells using “Cellfectin Reagent” (Invitrogen). 60 h later cells were harvested and supernatant were fractionated by the following protocol: • cells were dissolved into 40 ml of A-buffer (40 mM TRIS, pH8.0, 20% glycerol, 20 μM NAD, 0.4 mM PMSF, 150 mM NaCl, 0.5% dodecyl-β-maltoside+protease inhibitor cocktail) • cells were sonicated • lysate was incubated on ice for 15 min • lysate was centrifuged 5000 rpm 15 min, +4° C. • centrifugation of the supernatant 180.000 g 30 min, +4° C. • pellet was dissolved into 8 ml of A-buffer • not resuspended material was removed by centrifugation 5000 rpm 15 min, +4° C. • the clear supernatant was divided into 100 μl aliquots and were stored frozen until determination of enzymatic activity.
The amount of 17β-HSD2 was analysed by immunoblotting and total protein concentration of each extract batch was determined.
Assay—Inhibition of Recombinant Human 17β-HSD2:
Recombinant protein (4 μg/ml) was incubated in 20 mM KH2PO4 pH 8.5 with 50 nM estradiol (including 800.000 cpm/ml of ^3H-estradiol) and 1 mM NADH for 30 min at RT, in the presence of the potential inhibitor at concentrations 1 μM or 0.1 μM. Inhibitor stock solutions were prepared in DMSO. Final concentration of DMSO was adjusted to 1% in all samples. The enzyme reaction was stopped by addition of 10% trichloroacetic acid (final concentration). Samples were centrifuged in a microtiter plate at 4000 rpm for 10 min. Supernatants were applied to reverse phase HPLC on a Waters Symmetry C18 column, equipped with a Waters Sentry Guard column. Isocratic HPLC runs were performed at RT at a flow rate of 1 ml/min in acetonitrile:water 48:52 as running solvent. Radioactivity was monitored in the eluate by a Packard Flow Scintillation Analyzer. Total radioactivity for estrone and estradiol were determined in each sample and percent conversion of estradiol to estrone was calculated according to the following formula:
as §1

The mark [3] stands for this setting: inhibitor at 1 μM, 30 nM estrone, 1 mM NADPH, 30 min at RT.
Where [4] appears, read: inhibitor at 1 μM, 50 nM estradiol, 1 mM NADH, 30 min at RT.

In the case of `COc1ccc2c(c1)CCC1C2CC[C@@]2(C)C1[C@H](CCC(=O)Nc1ncc(C)s1)C[C@@]2(O)C#N` (stereo partly drawn) [Compound 23, 3-((13S,15R,17S)-17-cyano-17-hydroxy-3-methoxy-13-methyl-7,8,9,11,12,13,14,15,16,17-decahydro-6H-cyclopenta[a]phenanthren-15-yl)-N-(5-methylthiazol-2-yl)propanamide], the inhibition (usually the drop in the measured response relative to a control, in per cent) at 1 µM in test [1] (setting [3]) turned out to be 82%; in test [2] (setting [4]), 3%.

Regarding `Cc1cnc(NC(=O)CC[C@@H]2C[C@H](OC(=O)CCC(=O)O)[C@@]3(C)CCC4c5ccc(O)cc5CCC4C23)s1` (stereo partly drawn) [Compound 43, Succinic acid mono-{(13S,15R,17S)-3-hydroxy-13-methyl-15-[2-(5-methylthiazol-2-ylcarbamoyl)-ethyl]-17-oxo-7,8,9,11,12,13,14,15,16,17-decahydro-6H-cyclopenta[a]phenanthren-17-yl}ester], the inhibition at 1 µM was 97% in test [1] (setting [3]) and 1% in test [2] (setting [4]).

Turning to `Cc1cnc(NC(=O)CC[C@@H]2C[C@H](O)[C@@]3(C)CCC4c5ccc(O)c(NC(C)C)c5CCC4C23)s1` (stereo partly drawn) [Compound 71, 3-((13S,15R,17S)-3,17-Dihydroxy-4-isopropylamino-13-methyl-7,8,9,11,12,13,14,15,16,17-decahydro-6H-cyclopenta[a]phenanthren-15-yl)-N-(5-methylthiazol-2-yl)propionamide], the inhibition at 1 µM in test [1] (setting [3]) was determined as 49%; in test [2] (setting [4]) it was 10%.

Regarding `Cc1cnc(NC(=O)CC[C@@H]2C[C@H](OC(=O)CCC(=O)O)[C@@]3(C)CCC4c5ccc(O)cc5CCC4C23)s1` (some centres unmarked) [Compound 44, sodium salt], the results for the inhibition at 1 µM in test [1] and in test [2] were 94% and 2%, respectively.

Regarding `Cc1cnc(NC(=O)CC[C@@H]2C[C@H](O)[C@@]3(C)CCC4c5cc(Br)c(O)c(Br)c5CCC4C23)s1` (stereo partly drawn) [Compound 28, 3-((13S,15R,17S)-2,4-dibromo-3,17-dihydroxy-13-methyl-7,8,9,11,12,13,14,15,16,17-decahydro-6H-cyclopenta[a]phenanthren-15-yl)-N-(5-methylthiazol-2-yl)propanamide], the results for the inhibition at 1 µM in test [1] (setting [3]) and in test [2] (setting [4]) were 91% and 15%, respectively.

Consider `Cc1cnc(NC(=O)CC[C@@H]2CC(NCCCN(C)C)[C@@]3(C)CCC4c5ccc(O)cc5CCC4C23)s1` (stereo partly drawn) [Compound 80b, 3-[(13S,15R)-17-(3-Dimethylamino-propylamino)-3-hydroxy-13-methyl-7,8,9,11,12,13,14,15,16,17-decahydro-6H-cyclopenta[a]phenanthren-15-yl]-N-(5-methylthiazol-2-yl)propionamide dihydrochloride], for which the “17β-HDS1 Inhibition % at 1 μM” value in test [1] (inhibitor at 1 μM, 30 nM estrone, 1 mM NADPH, 30 min at RT, dihydrochloride) turned out to be 61%. Besides, in test [2] (inhibitor at 1 μM, 50 nM estradiol, 1 mM NADH, 30 min at RT, dihydrochloride), the “17β-HSD2 Inhibition % at 1 μM” value came to 2%.

For the compound `Cc1cnc(NC(=O)CC[C@@H]2C[C@@](O)(CC#N)[C@@]3(C)CCC4c5cc(Br)c(O)c(Br)c5CCC4C23)s1` (stereo partly drawn) [Compound 30, 3-((13S,15R,17R)-2,4-dibromo-17-(cyanomethyl)-3,17-dihydroxy-13-methyl-7,8,9,11,12,13,14,15,16,17-decahydro-6H-cyclopenta[a]phenanthren-15-yl)-N-(5-methylthiazol-2-yl)propanamide], the inhibition at 1 µM in test [1] (setting [3]) was determined as 52%; in test [2] (setting [4]) it was 7%.

As to `Cc1cnc(NC(=O)CC[C@@H]2C[C@H](NCC(C)C)[C@@]3(C)CCC4c5cc(C(C)(C)C)c(O)cc5CCC4C23)s1` (stereo partly drawn) [Compound 75b, 3-((13S,15R)-2-tert-Butyl-3-Hydroxy-17-isobutylamino-13-methyl-7,8,9,11,12,13,14,15,16,17-decahydro-6H-cyclopenta[a]phenanthren-15-yl]-N-(5-methylthiazol-2-yl)propionamide], the inhibition at 1 µM is 77% in test [1] (setting [3]) and 13% in test [2] (setting [4]).

Take `Cc1cnc(NC(=O)CC[C@@H]2C[C@H](OP(=O)(O)O)[C@@]3(C)CCC4c5ccc(O)cc5CCC4C23)s1` (some centres unmarked) [Compound 60]: the inhibition at 1 µM in test [1] (setting [3]) was 74%; in test [2] (setting [4]), 0%.

For `Cc1cnc(NC(=O)CC[C@@H]2CC(NCCO)[C@@]3(C)CCC4c5ccc(O)cc5CCC4C23)s1` (stereo partly drawn) [Compound 78, 3-((13S,15R)-3-Hydroxy-17-(2-hydroxyethylamino)-13-methyl-7,8,9,11,12,13,14,15,16,17-decahydro-6H-cyclopenta[a]phenanthren-15-yl]-N-(5-methylthiazol-2-yl)propionamide], the inhibition at 1 µM in test [1] (setting [3]) was found to be 88%; in test [2] (setting [4]), 2%.

For the compound `Cc1cnc(NC(=O)CC[C@@H]2C[C@@](O)(CC#N)[C@@]3(C)CCC4c5ccc(O)cc5CCC4C23)s1` (stereo partly drawn) [Compound 24, 3-((13S,15R,17R)-17-(cyanomethyl)-3,17-dihydroxy-13-methyl-7,8,9,11,12,13,14,15,16,17-decahydro-6H-cyclopenta[a]phenanthren-15-yl)-N-(5-methylthiazol-2-yl)propanamide], the inhibition at 1 µM in test [1] (setting [3]) is 51%; in test [2] (setting [4]), 4%.

Regarding `Cc1cnc(NC(=O)CC[C@@H]2C[C@H](O)[C@@]3(C)CCC4c5ccc(O)c(NC(C)CO)c5CCC4C23)s1` (stereo partly drawn) [Compound 72, 3-[(13S,15R,17S)-3,17-Dihydroxy-4-(2-hydroxy-1-methyl-ethylamino)-13-methyl-7,8,9,11,12,13,14,15,16,17-decahydro-6H-cyclopenta[a]phenanthren-15-yl]-N-(5-methylthiazol-2-yl)propionamide], the inhibition at 1 µM in test [1] (setting [3]) is 50%; in test [2] (setting [4]), 0%.

As for `Cc1cnc(NC(=O)CC[C@@H]2CC(O)[C@@]3(C)CCC4c5ccccc5CCC4C23)s1` (stereo partly drawn) [Compound 67, 3-((13S,15R)-17-Hydroxy13-methyl-7,8,9,11,12,13,14,15,16,17-decahydro-6H-cyclopenta[a]phenanthren-15-yl)-N-(5-methylthiazol-2-yl)propanamide], the figures for the inhibition at 1 µM in test [1] (setting [3]) and in test [2] (setting [4]) were 74% and 30%, respectively.
